Structures are written as SMILES.

The subject of series [1] is Hepatocyte. Kind of series: Hepatoprotective activity against H2O2-induced cell damage in rat hepatocyte assessed as reduction in cell growth. It counts as functional, cell-based.
A short description of series [2]: Hepatotoxicity in rat assessed as reduction in GPT level at 0.01 mg/mL measured after 48 hrs (reference value: 291 IU/L). To be noted: in vivo. It is filed as toxicity.
Series [3] is described as follows: Hepatoprotective activity against D-Galactosamine-induced toxicity in rat WB-F344 cells assessed as cell survival rate at 10 uM relative to control. It is filed as functional.
Series [4] is described as follows: Hepatoprotective activity against D-GaIN - induced toxicity in rat WB-F344 cells assessed as inhibition of cell growth relative to control. It is filed as functional. Set-up: scale not given: the % may be the effect or the level left.
A short description of series [5]: Hepatotoxicity in rat assessed as reduction in GPT level at 1.0 mg/mL measured after 48 hrs (reference value: 291 IU/L). It counts as toxicity. To be noted: in vivo.
In series [6] the test system is Hepatocyte. Kind of series: Hepatoprotective activity against D-GaIN/TNFalpha-induced cell death in mouse hepatocyte at 200 uM relative to control. It is filed as functional.
Series [7] deals with Hepatocyte. The experiment in a line: Hepatoprotective activity against D-GaIN/TNFalpha-induced cell death in mouse hepatocyte at 100 uM relative to control. It counts as functional, cell-based. To be noted: dose 100 µM.
In series [8] the test system is Hepatocyte. Kind of series: Hepatoprotective activity against D-GaIN/TNFalpha-induced cell death in mouse hepatocyte at 25 uM relative to control. It counts as functional.
Series [9] concerns Hepatocyte. The experiment in a line: Hepatoprotective activity against D-GaIN/TNFalpha-induced cell death in mouse hepatocyte at 50 uM relative to control. It counts as functional.
Series [10] can be described thus: Cytotoxicity against human HepG2 cells assessed as reduction in cell viability by SRB assay. It counts as toxicity, cell-based.

Consider `CC1=C[C@]2(C=C([C@H]3CC[C@@]4(C)[C@@H]5CC[C@H]6C(C)(C)C(=O)C=C[C@@]67C[C@@]57CC[C@]34C)C(=O)N2)OC1=O`, for which the half-maximal effective concentration (EC50) in series [1] was determined as 126 µM.

On to `CC1=C[C@]2(C=C([C@H]3CC[C@@]4(C)[C@@H]5CC[C@H]6C(C)(C)C(=O)C=C[C@]67C[C@]57CC[C@]34C)C(=O)N2)OC1=O`, for which, in [1], the concentration for a half-maximal effect (EC50) worked out at 167 µM.

For the molecule `C[C@@]1(CO)CC[C@]2(C(=O)O[C@@H]3O[C@H](CO[C@@H]4O[C@H](CO)[C@@H](O)[C@H](O)[C@H]4O)[C@@H](O)[C@H](O[C@@H]4O[C@H](CO)[C@@H](O)[C@H](O)[C@H]4O)[C@H]3O)CC[C@]3(C)C(=CC[C@@H]4[C@@]5(C)CC[C@H](O[C@@H]6O[C@H](CO)[C@@H](O)[C@H](O)[C@H]6O)[C@@](C)(C(=O)O)[C@@H]5CC[C@]43C)[C@@H]2C1`, in [2], the Activity is given as 253 IU/L.

In the case of `CC1(C)CC[C@]2(C(=O)O[C@@H]3O[C@H](CO)[C@@H](O)[C@H](O)[C@H]3O)CC[C@]3(C)C(=CC[C@@H]4[C@@]5(C)C[C@@H](O)[C@@H](O)[C@](C)(CO)[C@@H]5CC[C@]43C)[C@@H]2[C@@H]1O`, the Activity in [3] and in [4] was 61% throughout.

Take `CC1(C)CC[C@]2(C(=O)O[C@@H]3O[C@H](CO)[C@@H](O)[C@H](O)[C@H]3O)CC[C@]3(C)C(=CC[C@@H]4[C@@]5(C)CC[C@H](O[C@@H]6O[C@H](CO)[C@@H](O)[C@H](O)[C@H]6O)C(C)(C(=O)O)[C@@H]5CC[C@]43C)[C@@H]2C1` (stereo partly drawn): the Activity in series [2] is given as 271 IU/L; in series [5] it was 279 IU/L.

On to `C[C@@]1(CO)CC[C@]2(C(=O)O[C@@H]3O[C@H](CO)[C@@H](O)[C@H](O)[C@H]3O)CC[C@]3(C)[C@H](C=C[C@@H]4[C@@]5(C)C[C@@H](O)[C@H](O)[C@@](C)(CO)[C@@H]5CC[C@]43C)[C@H]2C1`, for which the Activity in series [6] is given as 8%; in series [7], 8%; in series [8], 15.1%; in series [9], 8%.

`CC1(C)CC[C@]2(C(=O)O)CC[C@]3(C)[C@H](C=C[C@@H]4[C@@]5(C)C[C@@H](O)[C@H](O)[C@@](C)(CO)[C@@H]5CC[C@]43C)[C@H]2[C@@H]1O`: the Activity in series [6], in series [7] and in series [9] was 8% in each case.

With `CC(=O)N[C@@H](CS)C(=O)O` [ACETYLCYSTEINE], the EC50 in [1] came to 106 µM.

On to `CC1(C)CC[C@]2(C(=O)O[C@@H]3O[C@H](CO)[C@@H](O)[C@H](O)[C@H]3O[C@@H]3OC[C@@H](O)[C@H](O)[C@H]3O)CC[C@]3(C)C(=CC[C@@H]4[C@@]5(C)C[C@@H](O)[C@@H](O)[C@@](C)(CO)[C@@H]5CC[C@]43C)[C@@H]2[C@@H]1O`, for which the Activity in series [3] and in series [4] was 64% in each case.

Turning to `CC1=C[C@@]2(C[C@H]([C@H]3CC[C@@]4(C)[C@@H]5CC[C@H]6C(C)(C)[C@@H](O)C=C[C@@]67C[C@@]57CC[C@]34C)[C@@H](O)O2)OC1=O`, the EC50 in [10] came to 123 µM.

Consider `CC1(C)CC[C@]2(C(=O)O[C@@H]3O[C@H](CO)[C@@H](O)[C@H](O)[C@H]3O)CC[C@]3(C)[C@H](C=C[C@@H]4[C@@]5(C)C[C@@H](O)[C@H](O)[C@@](C)(CO)[C@@H]5CC[C@]43C)[C@H]2[C@@H]1O`, for which the Activity in series [6], in [7] and in series [9] was 8% each time.

With `C[C@@]1(CO)CC[C@]2(C(=O)O[C@@H]3O[C@H](CO[C@@H]4O[C@H](CO)[C@@H](O)[C@H](O)[C@H]4O)[C@@H](O)[C@H](O)[C@H]3O)CC[C@]3(C)C(=CC[C@@H]4[C@@]5(C)CC[C@H](O[C@@H]6O[C@H](CO)[C@@H](O)[C@H](O)[C@H]6O)[C@@](C)(C(=O)O)[C@@H]5CC[C@]43C)[C@@H]2C1`, in series [2], the Activity amounted to 215 IU/L.

On to `CC1=C[C@@]2(C[C@H]([C@H]3CC[C@@]4(C)[C@@H]5CC[C@H]6C(C)(C)[C@@H](O)C=C[C@@]67C[C@@]57CC[C@]34C)[C@H](O)O2)OC1=O`, for which the EC50 in [10] amounted to 37.9 µM.

For orientation: EC50 means the concentration at which the effect is half-maximal.

Values taken from ChEMBL document CHEMBL5260832, “Hepatoprotective natural triterpenoids” (Eur J Med Chem, 2018).
